ChEMBL document CHEMBL1201862, “PubChem BioAssay data set” (2004)
Activity calls are given as the source filed them.

Tests used:
[1] = HEK293T cytotoxicity, dose response, cytotoxicity control for miR-122 modulator project, cell-based, inhibitor set, cherry-pick, set 2 (AID 720697); type: functional
[2] = molecular target: T1, Sentrin-specific protease 8 (Homo sapiens, UniProt Q96LD8); type: functional
T1 sequence (Q96LD8 whole entry): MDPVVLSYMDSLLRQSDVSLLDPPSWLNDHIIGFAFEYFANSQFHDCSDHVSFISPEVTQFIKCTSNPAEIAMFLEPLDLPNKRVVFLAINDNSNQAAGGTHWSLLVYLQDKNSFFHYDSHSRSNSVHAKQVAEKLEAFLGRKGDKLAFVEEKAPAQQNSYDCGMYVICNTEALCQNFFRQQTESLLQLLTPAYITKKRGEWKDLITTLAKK

Caspase-6 = molecular target: T2, Caspase-6 (Homo sapiens, UniProt P55212); assay: human caspase-6 inhibitors, dose response, biochemical, VEID-R110 fluorescence, cherry-pick (AID 720632)
T2 sequence (P55212 whole entry): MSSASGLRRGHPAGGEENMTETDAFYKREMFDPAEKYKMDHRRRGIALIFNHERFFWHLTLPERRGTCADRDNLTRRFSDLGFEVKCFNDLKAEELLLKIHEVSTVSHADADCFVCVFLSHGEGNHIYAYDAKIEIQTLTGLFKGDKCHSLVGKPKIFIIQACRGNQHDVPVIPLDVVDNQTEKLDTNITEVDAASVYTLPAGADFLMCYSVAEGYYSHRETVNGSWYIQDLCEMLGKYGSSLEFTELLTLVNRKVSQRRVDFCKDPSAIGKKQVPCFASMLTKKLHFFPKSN

[3] = molecular target: T1, Sentrin-specific protease 8; type: functional; remark: listed apart in the source
[4] = molecular target: Disintegrin and metalloproteinase domain-containing protein 17 (Homo sapiens, UniProt P78536); assay: ADAM17 protease inhibitors, dose response, counter-screen for ADAM10 exosite inhibitor project, biochemical, quenched FRET substrate (AID 743253)
Disintegrin and metalloproteinase domain-containing protein 17, sequence (P78536 whole entry, the tested form may be a part): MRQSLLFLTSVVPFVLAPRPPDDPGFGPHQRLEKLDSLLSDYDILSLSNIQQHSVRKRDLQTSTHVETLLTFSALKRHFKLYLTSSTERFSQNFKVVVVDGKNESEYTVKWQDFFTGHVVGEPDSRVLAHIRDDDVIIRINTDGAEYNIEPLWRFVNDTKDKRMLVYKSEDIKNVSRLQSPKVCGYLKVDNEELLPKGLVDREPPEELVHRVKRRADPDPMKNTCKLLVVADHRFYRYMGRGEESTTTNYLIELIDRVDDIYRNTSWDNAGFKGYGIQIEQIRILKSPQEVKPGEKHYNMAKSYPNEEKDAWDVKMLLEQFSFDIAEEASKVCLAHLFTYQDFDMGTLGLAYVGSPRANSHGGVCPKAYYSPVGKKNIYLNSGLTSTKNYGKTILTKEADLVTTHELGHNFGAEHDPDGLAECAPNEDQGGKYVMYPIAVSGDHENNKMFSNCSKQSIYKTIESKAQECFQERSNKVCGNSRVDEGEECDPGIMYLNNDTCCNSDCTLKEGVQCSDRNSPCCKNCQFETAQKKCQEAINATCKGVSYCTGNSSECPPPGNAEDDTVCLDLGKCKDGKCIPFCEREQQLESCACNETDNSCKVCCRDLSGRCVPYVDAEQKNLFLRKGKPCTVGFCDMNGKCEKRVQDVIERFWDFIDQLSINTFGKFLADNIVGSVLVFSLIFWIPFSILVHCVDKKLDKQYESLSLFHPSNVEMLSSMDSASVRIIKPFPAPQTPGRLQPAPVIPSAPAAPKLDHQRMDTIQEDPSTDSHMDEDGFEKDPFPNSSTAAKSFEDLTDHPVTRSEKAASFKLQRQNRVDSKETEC

[5] = ADAM10 inhibitors, peptide cleavage, dose response, biochemical, QFRET (AID 743254);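 also: ADAM10 enzyme with the DM2 quenched FRET peptide as substrate; EDANS fluorescence gain as the protease cuts the substrate; inhibitor potency against ADAM10 proteolytic activity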
[6] = Luminescence-based cell-based high throughput dose response assay to identify activators of the DAF-12 from the parasite S. stercoralis (ssDAF-12).; type: functional
[7] = molecular target: T3, Oxysterols receptor LXR-beta (Homo sapiens, UniProt P55055); assay: LXR agonists, Gal4 luciferase reporter, dose response, counter-screen for ssDAF-12 agonist project, cell-based, luminescence, HEK293, S. stercoralis campaign (AID 720737); type: functional; details: read-out: IC50 (the source's name)
T3 sequence (P55055 whole entry): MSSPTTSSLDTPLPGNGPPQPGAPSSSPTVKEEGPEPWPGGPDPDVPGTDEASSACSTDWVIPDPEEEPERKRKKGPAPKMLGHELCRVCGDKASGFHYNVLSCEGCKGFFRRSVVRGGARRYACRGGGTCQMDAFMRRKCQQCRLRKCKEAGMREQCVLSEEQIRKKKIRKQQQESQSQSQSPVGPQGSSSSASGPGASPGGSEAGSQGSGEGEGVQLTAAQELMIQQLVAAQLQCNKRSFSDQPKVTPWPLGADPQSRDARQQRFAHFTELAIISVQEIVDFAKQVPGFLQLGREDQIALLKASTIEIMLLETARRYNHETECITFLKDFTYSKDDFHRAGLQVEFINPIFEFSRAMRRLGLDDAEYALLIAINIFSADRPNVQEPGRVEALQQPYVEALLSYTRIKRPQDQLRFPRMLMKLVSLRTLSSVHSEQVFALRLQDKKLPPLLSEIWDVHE

[8] = Luminescence Cell-Based Dose Response to Identify Activators of Luciferase Translation or Activity in H4-C Neuroglioblastoma Cells. [Related pubchem assays: 1829 (Project Summary), 1814 (Primary HTS)]; type: functional
[9] = Luminescence Cell-Based Dose Confirmation to Identify Activators of 5'UTR Stem-Loop Driven Alpha-Synuclein mRNA Translation in H4 Neuroglioblastoma Cells. [Related pubchem assays: 1829 (Project Summary), 1814 (Primary HTS)]; type: functional
HeLa = assay: HeLa cell cytotoxicity, dose response, cytotoxicity control for MITF activator project, CellTiter-Glo luminescence, cherry-pick samples (AID 540259); type: functional, cell-based; details: Homo sapiens
[10] = Luminescence Cell-Based Dose Response HTS to Identify Activators of Luciferase Translation or Activity in H4 […] Cells. [Related pubchem assays: 1829 (Project Summary), 1814 (Primary HTS)]; type: functional
[11] = Luminescence Cell-Based Dose Response to Identify Activators of 5'UTR Stem-Loop Driven Prion Protein mRNA Translation in H4-C Neuroglioblastoma Cells. [Related pubchem assays: 1829 (Project Summary), 1814 (Primary HTS)]; type: functional
H4 = assay: Luminescence Cell-Based Dose Response HTS to Identify Activators of 5'UTR Stem-Loop Driven Prion Protein mRNA Translation in H4 Neuroglioblastoma Cells. [Related pubchem assays: 1829 (Project Summary), 1814 (Primary HTS)]; type: functional; details: Homo sapiens
[12] = Luminescence Cell-Based Dose Confirmation HTS to Identify Activators of 5'UTR Stem-Loop Driven Alpha-Synuclein mRNA Translation in H4 Neuroglioblastoma Cells. [Related pubchem assays: 1829 (Project Summary), 1814 (Primary HTS)]; type: functional

CCCNC(=O)Nc1ccc2c(c1)C(=O)N(C)[C@@H]1CC[C@H](CC(=O)O)O[C@H]1CO2
AC50 [1]: 1.82 µM (active)

O=C1Cc2ccccc2C(=O)N1c1ccc(F)cc1Cl
IC50 [2]: 4.41 µM (active) | AC50 (Caspase-6): 20.4 µM (active) | IC50 [3]: > 100 µM (inactive)

Cc1ccc(Nc2nc(N)nc(CSc3nc4ccccc4s3)n2)cc1
IC50 [4]: > 69.5 µM (inactive) | IC50 [5]: > 7.72 µM (active)

Nc1nonc1OCCCCOc1nonc1N
IC50 [6]: > 67.6 µM (inactive) | EC50 [7]: > 67.6 µM (inactive)

Clc1ccc(-c2cn3c(n2)CCC3)cc1
EC50 [8]: 0.299 µM (active) | EC50 [9]: 0.319 µM (active) | AC50 (HeLa): 173 µM (active) | EC50 [10]: < 0.1 µM (active) | EC50 [11]: 0.397 µM (active) | EC50 (H4): > 120 µM (not active)

Cc1ccc(NC(=O)C2CC(=O)Nc3nncn32)cc1 (configuration not stated)
IC50 [6]: > 67.6 µM (inactive) | EC50 [7]: > 67.6 µM (inactive)

Fc1cccc(Cl)c1Cc1noc(/C=C/c2ccccc2)n1
EC50 [8]: > 12 µM (not active) | EC50 [9]: > 12 µM (not active) | EC50 [10]: 70.3 µM (active) | EC50 [11]: > 12 µM (not active) | EC50 [12]: < 0.1 µM (active) | EC50 (H4): 4.36 µM (active)
